Measured values from patent publication US11458171B2, “Engineering stem cells for cancer therapy” (CHINA MEDICAL UNIVERSITY, priority 2018, dated 2022).

Test system: UMSCs
Experiment: Effect of GCV on plain UMSCs
Type: cell-based, human
Conditions: GCV alone on unmodified UMSCs

Structure (SMILES): Nc1nc(O)c2ncn(COC(CO)CO)c2n1 [GCV, ganciclovir]
- cell proliferation of UMSCs: did not affect cell proliferation
